Source: patent publication US11622970B2, “BCL-2 inhibitors and their use as pharmaceuticals” (PRELUDE THERAPEUTICS INCORPORATED, priority 2020, dated 2023)

biological target: BCL-2 recombinant protein (Homo sapiens, UniProt P10415); test: Cell free Bcl-2:Bak affinity assay (Bcl-2 Bak), HTRF competition of FAM-Bak peptide; type: binding; settings: 1 μM compound, 4 nM BCL-2 recombinant protein, 100 nM FAM-Bak, read-out: potency (% inhibition at 1 μM)
Outline: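 Compounds in 10-point 3-fold dilution preincubated 10 min at RT with 4 nM GST-BCL-2 (20 mM K phosphate pH 7.5, 50 mM NaCl, 1 mM EDTA, 0.005% Triton X-100), then 100 nM FAM-Bak 10 min, anti-GST-Tb added, 60 min RT dark. HTRF read; % inhibition vs DMSO and positive control, IC50 from curve fit.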

BCL-2 recombinant protein, sequence (P10415 whole entry): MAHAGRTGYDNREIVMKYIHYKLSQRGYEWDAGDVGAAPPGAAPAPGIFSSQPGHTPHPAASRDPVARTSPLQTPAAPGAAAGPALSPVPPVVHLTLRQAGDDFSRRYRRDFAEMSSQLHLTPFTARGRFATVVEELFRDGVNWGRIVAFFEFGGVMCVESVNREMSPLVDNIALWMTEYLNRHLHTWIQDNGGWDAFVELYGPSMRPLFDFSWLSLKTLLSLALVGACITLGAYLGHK

inhibition at 1 µM [%]	Compound
> 90	CC1(C)CCC(CN2CCN(c3ccc(S(=O)(=O)NC(=O)c4ccc(COc5cc(Cl)ccc5Cl)cc4)cc3)CC2)=C(c2ccc(Cl)cc2)C1 [Example 35, N-([4-[4-[[2-(4-chlorophenyl)-4,4-dimethylcyclohexen-1-yl]methyl]piperazin-1-yl]phenyl]sulfonyl)-4-((2,5-dichlorophenoxy)methyl)benzamide]
50 to 90	CC1(C)CCC(CN2CCN(c3ccc(S(=O)(=O)NC(=O)c4ccc([N+](=O)[O-])c(OCc5ccccc5)n4)cc3)CC2)=C(c2ccc(Cl)cc2)C1 [Example 51, 6-(benzyloxy)-N-[4-[4-[[2-(4-chlorophenyl)-4,4-dimethylcyclohexen-1-yl]methyl]piperazin-1-yl]phenyl]sulfonyl-5-nitropyridine-2-carboxamide]
50 to 90	CC1(C)CCC(CN2CCN(c3ccc(S(=O)(=O)NC(=O)c4cc([N+](=O)[O-])c(NCC5CCOCC5)cc4Cl)cc3)CC2)=C(c2ccc(Cl)cc2)C1 [Example 41, 2-Chloro-N-[4-[4-[[2-(4-chlorophenyl)-4,4-dimethylcyclohexen-1-yl]methyl]piperazin-1-yl]phenyl]sulfonyl-5-nitro-4-(tetrahydropyran-4-ylmethylamino)benzamide]
50 to 90	CNc1c([N+](=O)[O-])cc(C(=O)NS(=O)(=O)c2ccc(N3CCN(CC4=C(c5ccc(Cl)cc5)CC(C)(C)CC4)CC3)cc2)c(Cl)c1C [Example 54, 2-chloro-N-[4-[4-[[2-(4-chlorophenyl)-4,4-dimethylcyclohexen-1-yl]methyl]piperazin-1-yl]phenyl]sulfonyl-4-(methylamino)-3-methyl-5-nitrobenzamide]
50 to 90	CC1(C)CCC(CN2CCN(c3ccc(S(=O)(=O)NC(=O)c4ccc(F)c(-n5ccnc5)n4)cc3)CC2)=C(c2ccc(Cl)cc2)C1 [Example 46, N-[4-[4-[[2-(4-chlorophenyl)-4,4-dimethylcyclohexen-1-yl]methyl]piperazin-1-yl]phenyl]sulfonyl-5-fluoro-6-(1H-imidazol-1-yl)pyridine-2-carboxamide]
50 to 90	Cn1ncc2cc(-c3nc(C(=O)NS(=O)(=O)c4ccc(N5CCN(CC6=C(c7ccc(Cl)cc7)CC(C)(C)CC6)CC5)cc4)ccc3F)ccc21 [Example 50, N-[4-[4-[[2-(4-chlorophenyl)-4,4-dimethylcyclohexen-1-yl]methyl]piperazin-1-yl]phenyl]sulfonyl-5-fluoro-6-(1-methyl-1H-indazol-5-yl)pyridine-2-carboxamide]
> 90	CC1(C)CCC(CN2CCN(c3ccc(S(=O)(=O)NC(=O)c4ccc(F)c(-c5ccc6[nH]nnc6c5)n4)cc3)CC2)=C(c2ccc(Cl)cc2)C1 [Example 49, 6-(1H-benzo[d][1,2,3]triazol-5-yl)-N-[4-[4-[[2-(4-chlorophenyl)-4,4-dimethylcyclohexen-1-yl]methyl]piperazin-1-yl]phenyl]sulfonyl-5-fluoro pyridine-2-carboxamide]
50 to 90	COc1ncc(-c2nc(C(=O)NS(=O)(=O)c3ccc(N4CCN(CC5=C(c6ccc(Cl)cc6)CC(C)(C)CC5)CC4)cc3)ccc2F)cn1 [Example 57, N-[4-[4-[[2-(4-Chlorophenyl)-4,4-dimethylcyclohexen-1-yl]methyl]piperazin-1-yl]phenyl]sulfonyl-5-fluoro-6-(2-methoxypyrimidin-5-yl)pyridine-2-carboxamide]
50 to 90	CC1(C)CCC(CN2CCN(c3ccc(S(=O)(=O)NC(=O)c4cnc5ccccc5c4)cc3)CC2)=C(c2ccc(Cl)cc2)C1 [Example 9, N-((4-(4-((4′-chloro-5,5-dimethyl-3,4,5,6-tetrahydro-[1,1′-biphenyl]-2-yl)methyl)piperazin-1-yl)phenyl)sulfonyl)quinoline-3-carboxamide]
50 to 90	CN1C(=O)CCc2cc(C(=O)NS(=O)(=O)c3ccc(N4CCN(CC5=C(c6ccc(Cl)cc6)CC(C)(C)CC5)CC4)cc3)ccc21 [Example 10, N-([4-[4-[[2-(4-chlorophenyl)-4,4-dimethylcyclohexen-1-yl]methyl]piperazin-1-yl]phenyl]sulfonyl)-1-methyl-2-oxo-1,2,3,4-tetrahydroquinoline-6-carboxamide]
50 to 90	CC1(C)CCC(CN2CCN(c3ccc(S(=O)(=O)NC(=O)c4ccc5ccsc5n4)cc3)CC2)=C(c2ccc(Cl)cc2)C1 [Example 27, N-([4-[4-[[2-(4-chlorophenyl)-4,4-dimethylcyclohexen-1-yl]methyl]piperazin-1-yl]phenyl]sulfonyl)thieno[2,3-b]pyridine-6-carboxamide]
50 to 90	CC1(C)CCC(CN2CCN(c3ccc(S(=O)(=O)NC(=O)c4cc(-c5ccc(F)cc5)no4)cc3)CC2)=C(c2ccc(Cl)cc2)C1 [Example 25, N-([4-[4-[[2-(4-chlorophenyl)-4,4-dimethylcyclohexen-1-yl]methyl]piperazin-1-yl]phenyl]sulfonyl)-3-(4-fluorophenyl)isoxazole-5-carboxamide]

same assay, conditions: 10-concentration IC50 mode, 4 nM BCL-2 recombinant protein, 100 nM FAM-Bak, read-out: potency (IC50)

IC50 [µM]	Compound
0.01 to 0.1	Cc1cn(C)nc1C(=O)NS(=O)(=O)c1ccc(N2CCN(CC3=C(c4ccc(Cl)cc4)CC(C)(C)CC3)CC2)cc1Oc1cnc2[nH]ccc2c1 [Example 76, N-[4-[4-[[2-(4-chlorophenyl)-4,4-dimethylcyclohexen-1-yl]methyl]piperazin-1-yl]-2-(1H-pyrrolo[2,3-b]pyridin-5-yloxy)phenyl]sulfonyl-1,4-dimethylpyrazole-3-carboxamide]
> 1	Cc1cc([N+](=O)[O-])cc(C(=O)NS(=O)(=O)c2ccc(C3=CCN(CC4=C(c5ccc(Cl)cc5)CC(C)(C)CC4)CC3)cc2Oc2cnc3[nH]ccc3c2)n1 [Example 64, N-[4-[1-[[2-(4-Chlorophenyl)-4,4-dimethylcyclohexen-1-yl]methyl]-3,6-dihydro-2H-pyridin-4-yl]-2-(1H-pyrrolo[2,3-b]pyridin-5-yloxy)phenyl]sulfonyl-6-methyl-4-nitropyridine-2-carboxamide]
0.1 to 1	CC1(C)CCC(CN2CCN(c3ccc(S(=O)(=O)NC(=O)c4ccc5ccsc5n4)c(Oc4cnc5[nH]ccc5c4)c3)CC2)=C(c2ccc(Cl)cc2)C1 [Example 92, N-[4-[4-[[2-(4-chlorophenyl)-4,4-dimethylcyclohexen-1-yl]methyl]piperazin-1-yl]-2-(1H-pyrrolo[2,3-b]pyridin-5-yloxy)phenyl]sulfonylthieno[2,3-b]pyridine-6-carboxamide]
0.1 to 1	CC1(C)CCC(CN2CCN(c3ccc(S(=O)(=O)NC(=O)c4ccc([N+](=O)[O-])c(COc5ccc(Cl)cc5)c4)c(Oc4cnc5[nH]ccc5c4)c3)CC2)=C(c2ccc(Cl)cc2)C1 [Example 95, 3-[(4-Chlorophenoxy)methyl]-N-[4-[4-[[2-(4-chlorophenyl)-4,4-dimethylcyclohexen-1-yl]methyl]piperazin-1-yl]-2-(1H-pyrrolo[2,3-b]pyridin-5-yloxy)phenyl]sulfonyl-4-nitrobenzamide]
0.01 to 0.1	Cc1cc([N+](=O)[O-])cc(C(=O)NS(=O)(=O)c2ccc(N3CCN(CC4=C(c5ccc(Cl)cc5)CC(C)(C)CC4)CC3)cc2Oc2cnc3[nH]ccc3c2)n1 [Example 66, N-[4-[4-[[2-(4-Chlorophenyl)-4,4-dimethylcyclohexen-1-yl]methyl]piperazin-1-yl]-2-(1H-pyrrolo[2,3-b]pyridin-5-yloxy)phenyl]sulfonyl-6-methyl-4-nitropyridine-2-carboxamide]
0.1 to 1	CC1(C)CCC(CN2CCN(c3ccc(S(=O)(=O)NC(=O)c4ccc5c(c4)CCCO5)c(Oc4cnc5[nH]ccc5c4)c3)CC2)=C(c2ccc(Cl)cc2)C1 [Example 74, N-[4-[4-[[2-(4-chlorophenyl)-4,4-dimethylcyclohexen-1-yl]methyl]piperazin-1-yl]-2-(1H-pyrrolo[2,3-b]pyridin-5-yloxy)phenyl]sulfonyl-3,4-dihydro-2H-chromene-6-carboxamide]
0.01 to 0.1	CC1(C)CCC(CN2CCN(c3ccc(S(=O)(=O)NC(=O)c4cc(COc5ccc(Cl)cc5)cc([N+](=O)[O-])c4)c(Oc4cnc5[nH]ccc5c4)c3)CC2)=C(c2ccc(Cl)cc2)C1 [Example 86, 3-[(4-Chlorophenoxy)methyl]-N-[4-[4-[[2-(4-chlorophenyl)-4,4-dimethylcyclohexen-1-yl]methyl]piperazin-1-yl]-2-(1H-pyrrolo[2,3-b]pyridin-5-yloxy)phenyl]sulfonyl-5-nitrobenzamide]
0.01 to 0.1	COCc1cc(C(=O)NS(=O)(=O)c2ccc(N3CCN(CC4=C(c5ccc(Cl)cc5)CC(C)(C)CC4)CC3)cc2Oc2cnc3[nH]ccc3c2)cc([N+](=O)[O-])c1 [Example 85, N-[4-[4-[[2-(4-chlorophenyl)-4,4-dimethylcyclohexen-1-yl]methyl]piperazin-1-yl]-2-(1H-pyrrolo[2,3-b]pyridin-5-yloxy)phenyl]sulfonyl-3-(methoxymethyl)-5-nitrobenzamide]
0.01 to 0.1	Cc1c(Cl)c(C(=O)NS(=O)(=O)c2ccc(N3CCN(CC4=C(c5ccc(Cl)cc5)CC(C)(C)CC4)CC3)cc2Oc2cnc3[nH]ccc3c2)cc([N+](=O)[O-])c1OCC1COC1 [Example 103, 2-chloro-N-[4-[4-[[2-(4-chlorophenyl)-4,4-dimethylcyclohexen-1-yl]methyl]piperazin-1-yl]-2-(1H-pyrrolo[2,3-b]pyridin-5-yloxy)phenyl]sulfonyl-3-methyl-5-nitro-4-(oxetan-3-ylmethoxy)benzamide]
0.1 to 1	CC1(C)CCC(CN2CCN(c3ccc(S(=O)(=O)NC(=O)c4ccc(COc5ccc(Cl)cc5)c(S(C)(=O)=O)c4)c(Oc4cnc5[nH]ccc5c4)c3)CC2)=C(c2ccc(Cl)cc2)C1 [Example 89, 4-[(4-chlorophenoxy)methyl]-N-[4-[4-[[2-(4-chlorophenyl)-4,4-dimethylcyclohexen-1-yl]methyl]piperazin-1-yl]-2-(1H-pyrrolo[2,3-b]pyridin-5-yloxy)phenyl]sulfonyl-3-methylsulfonylbenzamide]
